Laboratory results taken from PMC12920294, “Optimizing uPAR-targeting radiopeptides for improved tissue distribution: progress towards radionuclide therapy” (European Journal of Nuclear Medicine and Molecular Imaging, 2025).

What was measured:
[1] = physchem; format: physicochemical; settings: pH 7.4
Protocol: The ^177Lu-labeled peptides (50 MBq/nmol) were incubated in mouse or human blood plasma (10 MBq/200 µL) over an incubation period of 24 h at 37 °C. Aliquots and control samples of the radiopeptides diluted in saline were analyzed after 1 h, 4 h and 24 h using thin layer chromatography (TLC) as previously reported (Supplementary Material). The distribution coefficients (logD values) of the ^177Lu-labeled peptides (50 MBq/nmol) were determined using a shake-flask method according to a previously published procedure (Supplementary Material). Methods: The radiopeptides (50 MBq/nmol) were diluted in phosphate buffered saline (PBS) pH 7.4 to obtain an activity concentration of 10 MBq/500 µL. A sample of this radiopeptide solution (~0.5 MBq, 25 µL, 0.01 nmol) was added to a mixture of PBS pH 7.4 (1475 µL) and n-octanol (1500 µL). The vials were vortexed vigorously for 1 min followed by centrifugation (560 rcf, 25°C, 6 min) for phase separation. Aliquots were taken from each phase and measured in a γ-counter (Wallac Wizard 1480, PerkinElmer). The distribution coefficients were calculated as the logarithmic value of the ratio of counts per minute (cpm) measured in the n-octanol phase relative to the cpm measured in the PBS phase. The results were listed as average ± SD of the data obtained from 3 independent experiments, each performed with five replicates.

[2] = target: T1, human uPAR (Homo sapiens, UniProt Q03405); assay: uPAR-binding affinity, saturation binding on HEK-uPAR cells; settings: 4 °C
T1 construct: host or cells: HEK cells transfected with human uPAR (HEK-uPAR)
Protocol: To determine the uPAR-binding affinity of the radiopeptides, saturation binding experiments were performed according to a previously published procedure using HEK-uPAR cells in 48-well plates (Supplementary Material). The assay was performed on ice (at 4 °C) to prevent target internalization upon binding of the radiopeptides. The cells were incubated with the radiopeptides in the presence or absence of excess AE105 (40 µM) together with the respective radiopeptides at concentrations ranging between 1 nM and 1600 nM. After removal of the supernatant, the HEK-uPAR cells were rinsed and lysed to be measured using a γ-counter (Wallac Wizard 1480, PerkinElmer). The KD values were determined by plotting the specific binding (values of cell samples incubated without AE105 minus the respective values of samples incubated with AE105) against the molar concentration of the added peptide. A nonlinear regression analysis was performed using GraphPad Prism software (version 10.1.1). The results are reported as average of KD values ± SD of n = 3 independent experiments. Methods: HEK-uPAR cells were seeded in poly-D-lysine-coated 48-well plates (0.25 × 10^6 in 0.5 mL per well) using DMEM culture medium with supplements. The cells were incubated at 37 °C and 5% CO2 overnight to allow adhesion and growth. The well plates with HEK-uPAR cells were placed on ice for the entire experiment to prevent internalization of the radiopeptides. After removal of the medium, the HEK-uPAR cells were rinsed with cold PBS (0.5 mL, pH 7.4) followed by the addition of DMEM culture medium without supplements (450 µL/well) in the presence or absence of AE105 (final concentration 40 µM) as a receptor blocking agent. The cells were incubated for 30 min on ice. The respective radiopeptides (5 MBq/nmol) were diluted in PBS at peptide concentrations 10‒16000 nM. A volume of 50 µL from each dilution was added to each well to obtain peptide concentrations in the range of […]. The assay was performed at 4 °C on ice, to prevent internalization of the radiopeptides. The radiopeptides were incubated on cells for 1 h on a shaker before rinsing twice with PBS (0.5 mL, pH 7.4). Increasing ligand concentrations were used to approximate saturation of the binding sites (Bmax value) at equilibrium. Ligand depletion effects of the ligand concentration in the supernatant of the cell samples were not taken into account. The cells were lysed using an aqueous NaOH solution (1 M, 600 µL) and the lysates were transferred to radioimmunoassay tubes for counting the activity in a γ-counter (Wallac Wizard 1480, PerkinElmer). The KD values were determined by plotting the specific binding (total binding minus unspecific binding) against the molar concentration of the added radiopeptide using GraphPad Prism software (version 10.1.1). The results were then expressed as average ± SD of n = 3 independent experiments.

[3] = in vivo; settings: CD1 nude, mouse, 0.5 nmol/mouse, total radioactivity
Protocol: (§1) HEK-uPAR xenografted mice were injected with the respective radiopeptide (5 MBq, 0.5 nmol/mouse, 100 µL 0.9% NaCl containing 0.05% BSA) and sacrificed at 4 h and 24 h after injection. […] The tissues and organs of interest were collected, weighed and counted for activity using a γ-counter (Wallac Wizard 1480, PerkinElmer). […] The results were presented as the average ± SD of n = 3 mice. The time-activity curves were determined for the uptake of [^177Lu]Lu-DOTA-AE105 and [^177Lu]Lu-uPAR-11 in the blood, HEK-uPAR xenografts, kidneys and liver based on non-decay corrected biodistribution data. For the blood, the initial uptake (t = 0) was set as 50% IA/g assuming a blood volume of 2 mL for CD1 nude mice. The initial uptake value (t = 0) for all other organs and tissues was set as 0% IA/g. […] The area under the curves over 48 h after injection (AUC0h→48 h) was calculated using GraphPad Prism software (version 10.1.1). Statistical analyses were performed by applying a one-way ANOVA test with a Dunnet’s multiple comparison post‐test to compare the data of the new radiopeptides with those of [^177Lu]Lu-DOTA-AE105 and a Tukey’s multiple comparisons post‐test to compare the novel radiopeptides among them. A p-value of < 0.05 was considered a statistically significant difference using GraphPad Prism software (version 10.1.1).

[4] = test system: HEK-uPAR xenograft-bearing mice; settings: mouse, in vivo
Protocol: as §1

T1 sequence (Q03405 23-335): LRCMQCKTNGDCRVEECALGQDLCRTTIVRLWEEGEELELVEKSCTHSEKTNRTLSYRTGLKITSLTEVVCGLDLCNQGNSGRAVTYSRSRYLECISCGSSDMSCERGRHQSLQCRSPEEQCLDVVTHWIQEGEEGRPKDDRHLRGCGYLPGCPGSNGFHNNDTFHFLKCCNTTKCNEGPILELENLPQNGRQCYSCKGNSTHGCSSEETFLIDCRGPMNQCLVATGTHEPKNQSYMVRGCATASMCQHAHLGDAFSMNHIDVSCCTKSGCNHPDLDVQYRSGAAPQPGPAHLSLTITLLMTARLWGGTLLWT

logD [1] | Kd [2] | tissue uptake at 4 h ([3]; Blood uptake) | tissue uptake at 24 h ([3]; Blood uptake) | tissue uptake at 4 h ([3]; Bone uptake) | tissue uptake at 24 h ([3]; Bone uptake) | tissue uptake at 4 h ([3]; Brain uptake) | tissue uptake at 24 h ([3]; Brain uptake) | tissue uptake at 4 h ([3]; HEK-uPAR xenograft uptake) | tissue uptake at 24 h ([3]; HEK-uPAR xenograft uptake) | tissue uptake at 4 h ([3]; Heart uptake) | tissue uptake at 24 h ([3]; Heart uptake) | tissue uptake at 4 h ([3]; Intestines uptake) | tissue uptake at 24 h ([3]; Intestines uptake) | tissue uptake at 4 h ([3]; Kidneys uptake) | tissue uptake at 24 h ([3]; Kidneys uptake) | tissue uptake at 4 h ([3]; Liver uptake) | tissue uptake at 24 h ([3]; Liver uptake) | tissue uptake at 4 h ([3]; Lung uptake) | tissue uptake at 24 h ([3]; Lung uptake) | SMILES | other results
-0.03 ± 0.01 | 42 ± 3 nM | 4.5 ± 0.5 %ID/g | 0.04 ± 0.01 %ID/g | 0.66 ± 0.05 %ID/g | 0.12 ± 0.03 %ID/g | 0.1 ± 0.02 %ID/g | < 0.03 %ID/g | 12 ± 1 %ID/g | 3.1 ± 0.8 %ID/g | 1.6 ± 0.2 %ID/g | 0.13 ± 0.01 %ID/g | 0.74 ± 0.15 %ID/g | 0.16 ± 0.03 %ID/g | 3.9 ± 0.6 %ID/g | 2 ± 0.3 %ID/g | 1.6 ± 0.2 %ID/g | 0.5 ± 0.11 %ID/g | 2.6 ± 0.4 %ID/g | 0.27 ± 0.06 %ID/g | Cc1ccc(CCCC(=O)NCCOCCOCCOCCC(=O)NCCCC[C@H](NC(=O)CN2CCN(CC(=O)O)CCN(CC(=O)O)CCN(CC(=O)O)CC2)C(=O)N[C@@H](CC(=O)O)C(=O)N[C@@H](CC2CCCCC2)C(=O)N[C@@H](Cc2ccccc2)C(=O)N[C@H](CO)C(=O)N[C@H](CCCNC(=N)N)C(=O)N[C@@H](Cc2ccc(O)cc2)C(=O)N[C@@H](CC(C)C)C(=O)N[C@@H](Cc2c[nH]c3ccccc23)C(=O)N[C@@H](CO)C(N)=O)cc1 [[^177Lu]Lu-uPAR-15, metal not drawn] | tissue uptake at 4 h ([3]; Muscle uptake): 0.41 ± 0.1 %ID/g; tissue uptake at 24 h ([3]; Muscle uptake): 0.05 ± 0.01 %ID/g; tissue uptake at 4 h ([3]; Pancreas uptake): 0.61 ± 0.1 %ID/g; tissue uptake at 24 h ([3]; Pancreas uptake): 0.09 ± 0.02 %ID/g; tissue uptake at 4 h ([3]; Salivary glands uptake): 1.2 ± 0.2 %ID/g; tissue uptake at 24 h ([3]; Salivary glands uptake): 0.21 ± 0.03 %ID/g; tissue uptake at 4 h ([3]; Spleen uptake): 0.93 ± 0.09 %ID/g; tissue uptake at 24 h ([3]; Spleen uptake): 0.51 ± 0.23 %ID/g; tissue uptake at 4 h ([3]; Stomach uptake): 0.67 ± 0.11 %ID/g; tissue uptake at 24 h ([3]; Stomach uptake): 0.12 ± 0.03 %ID/g; Xgrft-to-liver ratio [4]: 6.5 ± 1.7
-1.56 ± 0.03 | 31 ± 6 nM | 6 ± 1.3 %ID/g | < 0.03 %ID/g | 0.82 ± 0.1 %ID/g | 0.06 ± 0.01 %ID/g | 0.13 ± 0.04 %ID/g | < 0.03 %ID/g | 8 ± 0.7 %ID/g | 2.1 ± 0.5 %ID/g | 2.2 ± 0.4 %ID/g | 0.07 ± 0.01 %ID/g | 0.87 ± 0.18 %ID/g | 0.05 ± 0.01 %ID/g | 4.6 ± 0.3 %ID/g | 1.3 to 1.7 %ID/g | 1.7 ± 0.2 %ID/g | 0.21 ± 0.03 %ID/g | 3 ± 0.7 %ID/g | 0.12 ± 0.02 %ID/g | Cc1ccc(CCCC(=O)NCCOCCOCCOCCOCCC(=O)NCCCC[C@H](NC(=O)CC[C@H](C(=O)O)N2CCN(CC(=O)O)CCN(CC(=O)O)CCN(CC(=O)O)CC2)C(=O)N[C@@H](CC(=O)O)C(=O)N[C@@H](CC2CCCCC2)C(=O)N[C@@H](Cc2ccccc2)C(=O)N[C@H](CO)C(=O)N[C@H](CCCNC(=N)N)C(=O)N[C@@H](Cc2ccc(O)cc2)C(=O)N[C@@H](CC(C)C)C(=O)N[C@@H](Cc2c[nH]c3ccccc23)C(=O)N[C@@H](CO)C(N)=O)cc1 [[^177Lu]Lu-uPAR-17, metal not drawn] | tissue uptake at 4 h ([3]; Muscle uptake): 0.57 ± 0.1 %ID/g; tissue uptake at 24 h ([3]; Muscle uptake): < 0.03 %ID/g; tissue uptake at 4 h ([3]; Pancreas uptake): 0.82 ± 0.17 %ID/g; tissue uptake at 24 h ([3]; Pancreas uptake): 0.04 ± 0.01 %ID/g; tissue uptake at 4 h ([3]; Salivary glands uptake): 1.2 ± 0.3 %ID/g; tissue uptake at 24 h ([3]; Salivary glands uptake): 0.12 ± 0.03 %ID/g; tissue uptake at 4 h ([3]; Spleen uptake): 1 ± 0.2 %ID/g; tissue uptake at 24 h ([3]; Spleen uptake): 0.13 ± 0.02 %ID/g; tissue uptake at 4 h ([3]; Stomach uptake): 0.73 ± 0.29 %ID/g; tissue uptake at 24 h ([3]; Stomach uptake): 0.05 ± 0.01 %ID/g; Kidneys uptake ([4]; CD1 nude, 0.5 nmol/mouse, 24 h): 1.3 ± 0.2 %IA/g; Xgrft-to-liver ratio [4]: 10 ± 3
-0.5 ± 0.07 | 33 ± 4 nM | 3.4 ± 0.7 %ID/g | 0.05 %ID/g | 0.5 ± 0.04 %ID/g | 0.19 ± 0.01 %ID/g | 0.08 ± 0.01 %ID/g | < 0.03 %ID/g | 14 ± 1 %ID/g | 7.3 ± 0.4 %ID/g | 1.3 ± 0.2 %ID/g | 0.12 ± 0.01 %ID/g | 0.58 ± 0.14 %ID/g | 0.17 ± 0.02 %ID/g | 3.7 ± 0.4 %ID/g | 2.1 ± 0.2 %ID/g | 1.2 ± 0.1 %ID/g | 0.38 ± 0.06 %ID/g | 2.1 ± 0.4 %ID/g | 0.29 ± 0.02 %ID/g | Cc1ccc(CCCC(=O)NCCOCCOCCOCCOCCOCCC(=O)NCCCC[C@H](NC(=O)CN2CCN(CC(=O)O)CCN(CC(=O)O)CCN(CC(=O)O)CC2)C(=O)N[C@@H](CC(=O)O)C(=O)N[C@@H](CC2CCCCC2)C(=O)N[C@@H](Cc2ccccc2)C(=O)N[C@H](CO)C(=O)N[C@H](CCCNC(=N)N)C(=O)N[C@@H](Cc2ccc(O)cc2)C(=O)N[C@@H](CC(C)C)C(=O)N[C@@H](Cc2c[nH]c3ccccc23)C(=O)N[C@@H](CO)C(N)=O)cc1 [[^177Lu]Lu-uPAR-18, metal not drawn] | tissue uptake at 4 h ([3]; Muscle uptake): 0.37 ± 0.03 %ID/g; tissue uptake at 24 h ([3]; Muscle uptake): 0.06 ± 0.01 %ID/g; tissue uptake at 4 h ([3]; Pancreas uptake): 0.63 ± 0.27 %ID/g; tissue uptake at 24 h ([3]; Pancreas uptake): 0.09 ± 0.01 %ID/g; tissue uptake at 4 h ([3]; Salivary glands uptake): 0.87 ± 0.2 %ID/g; tissue uptake at 24 h ([3]; Salivary glands uptake): 0.23 ± 0.03 %ID/g; tissue uptake at 4 h ([3]; Spleen uptake): 0.77 ± 0.01 %ID/g; tissue uptake at 24 h ([3]; Spleen uptake): 0.42 ± 0.04 %ID/g; tissue uptake at 4 h ([3]; Stomach uptake): 0.54 ± 0.12 %ID/g; tissue uptake at 24 h ([3]; Stomach uptake): 0.11 ± 0.02 %ID/g; Xgrft-to-liver ratio [4]: 20 ± 3
